The source of these data is ChEMBL document CHEMBL3045273, “Synthesis, characterization, and pharmacological evaluation of 1-[2-(6-nitro-4-oxo-2-phenyl-4H-quinazolin-3-yl)-ethyl]-3-phenyl ureas” (2013).

Converted amounts (≈) assume the structure as drawn.

For assay [1], the system named is Candida albicans. The assay can be described thus: Antifungal activity against Candida albicans ATCC 66027 assessed as growth inhibition at 300 ug/ml after 24 hr by Kirby-Bauer disk diffusion method. To be noted: ATCC 66027, 24 h, read-out: DIZ. Format: functional. A general note: A growth-free zone around the sample is the usual read-out of agar diffusion tests.

The subject of assay [2] is Bacillus subtilis. The assay can be described thus: Antibacterial activity against Bacillus subtilis ATCC 11774 assessed as growth inhibition at 300 ug/ml after 24 hr by Kirby-Bauer disk diffusion method. The class given is functional. The settings on record: ATCC 11774, 24 h, read-out: DIZ.
Assay [3] deals with Pseudomonas aeruginosa. As to the kind of experiment: Antibacterial activity against Pseudomonas aeruginosa ATCC 27853 assessed as growth inhibition at 300 ug/ml after 24 hr by Kirby-Bauer disk diffusion method. Format: functional. The settings on record: ATCC 27853, 24 h, read-out: DIZ.
In assay [4] the test system is Staphylococcus aureus. The assay can be described thus: Antibacterial activity against Staphylococcus aureus ATCC 25923 assessed as growth inhibition at 300 ug/ml after 24 hr by Kirby-Bauer disk diffusion method. The settings on record: ATCC 25923, 24 h, read-out: DIZ. Format: functional.
For assay [5], the system named is Candida albicans. The assay can be described thus: Antifungal activity against Candida albicans ATCC 66027 assessed as growth inhibition at 100 ug/ml after 24 hr by Kirby-Bauer disk diffusion method. Format: functional. The settings on record: ATCC 66027, 24 h, read-out: DIZ.
Assay [6] concerns Bacillus subtilis. The assay can be described thus: Antibacterial activity against Bacillus subtilis ATCC 11774 assessed as growth inhibition at 100 ug/ml after 24 hr by Kirby-Bauer disk diffusion method. To be noted: ATCC 11774, 24 h, read-out: DIZ. Format: functional.
Assay [7] has as its system Bacillus subtilis. As to the kind of experiment: Antibacterial activity against Bacillus subtilis ATCC 11774 assessed as initial concentration required for appearance of zone of inhibition after 24 hr. The class given is functional.
Assay [8] deals with Candida albicans. The assay can be described thus: Antifungal activity against Candida albicans ATCC 66027 assessed as initial concentration required for appearance of zone of inhibition after 24 hr. The class given is functional.
In assay [9] the test system is Staphylococcus aureus. The assay can be described thus: Antibacterial activity against Staphylococcus aureus ATCC 25923 assessed as initial concentration required for appearance of zone of inhibition after 24 hr. The class given is functional.
In assay [10] the test system is Pseudomonas aeruginosa. The assay can be described thus: Antibacterial activity against Pseudomonas aeruginosa ATCC 27853 assessed as initial concentration required for appearance of zone of inhibition after 24 hr. Format: functional.
The test system of assay [11] is Escherichia coli. As to the kind of experiment: Antibacterial activity against Escherichia coli ATCC 25922 assessed as initial concentration required for appearance of zone of inhibition after 24 hr. Format: functional.
In assay [12] the test system is Candida albicans. As to the kind of experiment: Antifungal activity against Candida albicans ATCC 66027 assessed as growth inhibition after 24 hr by serial broth dilution method. Format: functional. The settings on record: ATCC 66027, 24 h.
Assay [13] has as its system Bacillus subtilis. As to the kind of experiment: Antibacterial activity against Bacillus subtilis ATCC 11774 assessed as growth inhibition after 24 hr by serial broth dilution method. Format: functional. The settings on record: ATCC 11774, 24 h. A general note: Dilution methods test growth across graded concentrations, often in twofold steps.
Assay [14] relates to Pseudomonas aeruginosa. The assay can be described thus: Antibacterial activity against Pseudomonas aeruginosa ATCC 27853 assessed as growth inhibition after 24 hr by serial broth dilution method. Format: functional. The settings on record: ATCC 27853, 24 h.
Assay [15] deals with Staphylococcus aureus. The assay can be described thus: Antibacterial activity against Staphylococcus aureus ATCC 25923 assessed as growth inhibition after 24 hr by serial broth dilution method. Format: functional. The settings on record: ATCC 25923, 24 h.
Assay [16] has as its system Escherichia coli. As to the kind of experiment: Antibacterial activity against Escherichia coli ATCC 25922 assessed as growth inhibition after 24 hr by serial broth dilution method. Format: functional. To be noted: ATCC 25922, 24 h.
Assay [17] has as its system Escherichia coli. The assay can be described thus: microbe, parasite or virus in culture. To be noted: ATCC 25922, 24 h, read-out: DIZ.
Assay [18] deals with Escherichia coli. The assay can be described thus: microbe, parasite or virus in culture. To be noted: ATCC 25922, 24 h, read-out: DIZ. The source holds these as a separate data set.
The test system of assay [19] is Escherichia coli. As to the kind of experiment: Antibacterial activity against Escherichia coli ATCC 25922 assessed as growth inhibition at 40 ug/ml after 24 hr by Kirby-Bauer disk diffusion method. Format: functional. The settings on record: ATCC 25922, 24 h, read-out: DIZ.
Assay [20] concerns Pseudomonas aeruginosa. As to the kind of experiment: Antibacterial activity against Pseudomonas aeruginosa ATCC 27853 assessed as growth inhibition at 100 ug/ml after 24 hr by Kirby-Bauer disk diffusion method. The class given is functional. To be noted: ATCC 27853, 24 h, read-out: DIZ.
In assay [21] the test system is Staphylococcus aureus. As to the kind of experiment: Antibacterial activity against Staphylococcus aureus ATCC 25923 assessed as growth inhibition at 100 ug/ml after 24 hr by Kirby-Bauer disk diffusion method. Format: functional. The settings on record: ATCC 25923, 24 h, read-out: DIZ.

The term MIC denotes the lowest concentration that inhibits growth of the organism.

As to `O=C(NCCn1c(-c2ccccc2)nc2ccc([N+](=O)[O-])cc2c1=O)Nc1ccccc1`, the zone of inhibition at 300 µg/mL in [1] was 20 mm; in assay [2] it was 15 mm; in [3], 14 mm; in assay [4], 14 mm; in assay [17], 16 mm. Also, the zone of inhibition at 100 µg/mL was 17 mm in assay [5], 11 mm in [6] and 11 mm in [18]. Besides, the Activity in assay [7] was 100 µg/mL; in assay [8] it was 20 µg/mL; in [9] it was 200 µg/mL; in assay [10] it was 200 µg/mL; in assay [11], 100 µg/mL. For the same molecule, the MIC in assay [12] amounted to 20 µg/mL (≈ 46.6 µM); in assay [13], 100 µg/mL (≈ 233 µM); in assay [14], 40 µg/mL (≈ 93.1 µM); in assay [15], 100 µg/mL (≈ 233 µM); in assay [16], 70 µg/mL (≈ 163 µM).

`CSc1ccc(NC(=O)NCCn2c(-c3ccccc3)nc3ccc([N+](=O)[O-])cc3c2=O)cc1`: the zone of inhibition at 40 µg/mL in assay [19] is 11 mm. In addition, the zone of inhibition at 300 µg/mL was determined as 20 mm in [1]; 16 mm in assay [2]; 19 mm in [3]; 12 mm in assay [4]; 18 mm in assay [17]. The zone of inhibition at 100 µg/mL amounted to 15 mm in [5], 12 mm in assay [6], 12 mm in assay [20] and 14 mm in [18]. In addition, the Activity in [7] was determined as 70 µg/mL; in [8], 20 µg/mL; in [9], 200 µg/mL; in assay [10], 70 µg/mL; in [11] it was 40 µg/mL. The MIC in assay [12] came out at 20 µg/mL (≈ 42.1 µM); in [13], 70 µg/mL (≈ 147 µM); in assay [14], 70 µg/mL (≈ 147 µM); in assay [15], 200 µg/mL (≈ 421 µM); in assay [16], 40 µg/mL (≈ 84.1 µM).

Consider `O=C(NCCn1c(-c2ccccc2)nc2ccc([N+](=O)[O-])cc2c1=O)Nc1cc(C(F)(F)F)cc(C(F)(F)F)c1`, for which the zone of inhibition at 300 µg/mL in assay [1] came to 24 mm; in [2] it was 19 mm; in [3], 19 mm; in assay [4], 12 mm; in assay [17], 14 mm. Besides, the zone of inhibition at 100 µg/mL in assay [5] turned out to be 17 mm; in assay [6], 14 mm; in assay [20], 14 mm; in assay [18], 11 mm. Moreover, the Activity in assay [7] turned out to be 70 µg/mL; in assay [8], 20 µg/mL; in assay [9], 200 µg/mL; in [10], 40 µg/mL; in assay [11], 100 µg/mL. The MIC was determined as 20 µg/mL (≈ 35.4 µM) in assay [12]; 40 µg/mL (≈ 70.7 µM) in assay [13]; 40 µg/mL (≈ 70.7 µM) in assay [14]; 200 µg/mL (≈ 354 µM) in assay [15]; 100 µg/mL (≈ 177 µM) in assay [16].

For the molecule `OC(Cn1cncn1)(Cn1cncn1)c1ccc(F)cc1F` [FLUCONAZOLE], the Activity in assay [8] came to 10 µg/mL. For the same molecule, the MIC in assay [12] was found to be 5 µg/mL (≈ 16.3 µM).

With `O=C(NCCn1c(-c2ccccc2)nc2ccc([N+](=O)[O-])cc2c1=O)NC1CCCCC1`, the zone of inhibition at 300 µg/mL in [1] turned out to be 21 mm; in [2], 13 mm; in assay [3], 17 mm; in [4], 12 mm; in assay [17] it was 18 mm. The zone of inhibition at 100 µg/mL amounted to 13 mm in assay [5], 12 mm in assay [20] and 13 mm in assay [18]. The Activity is 200 µg/mL in assay [7]; 20 µg/mL in [8]; 200 µg/mL in assay [9]; 70 µg/mL in assay [10]; 70 µg/mL in [11]. In addition, the MIC stood at 20 µg/mL (≈ 45.9 µM) in assay [12]; 100 µg/mL (≈ 230 µM) in [13]; 70 µg/mL (≈ 161 µM) in [14]; 200 µg/mL (≈ 459 µM) in [15]; 70 µg/mL (≈ 161 µM) in assay [16].

Regarding `O=C(O)c1cn(C2CC2)c2cc(N3CCNCC3)c(F)cc2c1=O` [CIPROFLOXACIN], the Activity in [7] worked out at 5 µg/mL; in [9], 10 µg/mL; in [10], 10 µg/mL; in assay [11] it was 20 µg/mL. Moreover, the MIC turned out to be 5 µg/mL (≈ 15.1 µM) in assay [13], 10 µg/mL (≈ 30.2 µM) in assay [14], 5 µg/mL (≈ 15.1 µM) in assay [15] and 15 µg/mL (≈ 45.3 µM) in assay [16].

On to `O=C(NCCn1c(-c2ccccc2)nc2ccc([N+](=O)[O-])cc2c1=O)Nc1ccc(Cl)cc1`, for which the zone of inhibition at 300 µg/mL in assay [1] was 21 mm; in [2] it was 16 mm; in [3], 16 mm; in [4], 12 mm; in assay [17] it was 14 mm. The zone of inhibition at 100 µg/mL in [5] was determined as 15 mm; in [6], 12 mm; in assay [20] it was 11 mm; in [18], 12 mm. For the same molecule, the Activity in [7] is 70 µg/mL; in assay [8], 40 µg/mL; in [9], 200 µg/mL; in [10], 100 µg/mL; in [11], 70 µg/mL. Also, the MIC in assay [12] turned out to be 40 µg/mL (≈ 86.2 µM); in [13], 70 µg/mL (≈ 151 µM); in assay [14], 40 µg/mL (≈ 86.2 µM); in [15], 200 µg/mL (≈ 431 µM); in assay [16], 40 µg/mL (≈ 86.2 µM).

On to `O=C(NCCn1c(-c2ccccc2)nc2ccc([N+](=O)[O-])cc2c1=O)Nc1cc(C(F)(F)F)ccc1Cl`, for which the zone of inhibition at 300 µg/mL in assay [1] was found to be 20 mm; in [2], 14 mm; in assay [3] it was 19 mm; in assay [4] it was 12 mm; in assay [17], 18 mm. The zone of inhibition at 100 µg/mL amounted to 14 mm in assay [5], 11 mm in assay [6], 12 mm in [20] and 11 mm in assay [18]. In addition, the Activity in assay [7] was 100 µg/mL; in [8], 40 µg/mL; in assay [9] it was 300 µg/mL; in assay [10], 70 µg/mL; in assay [11], 70 µg/mL. Besides, the MIC came out at 20 µg/mL (≈ 37.6 µM) in assay [12]; 100 µg/mL (≈ 188 µM) in assay [13]; 70 µg/mL (≈ 132 µM) in assay [14]; 200 µg/mL (≈ 376 µM) in assay [15]; 70 µg/mL (≈ 132 µM) in assay [16].

In the case of `O=C(NCCn1c(-c2ccccc2)nc2ccc([N+](=O)[O-])cc2c1=O)Nc1ccc(C(F)(F)F)cc1`, the zone of inhibition at 300 µg/mL in assay [1] amounted to 20 mm; in assay [2] it was 14 mm; in [3], 18 mm; in assay [4], 13 mm; in [17], 15 mm. The zone of inhibition at 100 µg/mL in [5] amounted to 15 mm; in [6], 12 mm; in assay [21], 11 mm; in assay [20], 12 mm; in assay [18] it was 11 mm. Besides, the Activity is 70 µg/mL in [7]; 40 µg/mL in assay [8]; 100 µg/mL in [9]; 70 µg/mL in [10]; 100 µg/mL in assay [11]. For the same molecule, the MIC in assay [12] worked out at 40 µg/mL (≈ 80.4 µM); in assay [13], 70 µg/mL (≈ 141 µM); in assay [14], 40 µg/mL (≈ 80.4 µM); in [15], 70 µg/mL (≈ 141 µM); in [16], 70 µg/mL (≈ 141 µM).
